Results taken from paper PMC4207660, “Identification and Characterization of Hundreds of Potent and Selective Inhibitors of Trypanosoma brucei Growth from a Kinase-Targeted Library Screening Campaign” (PLoS Neglected Tropical Diseases, 2014).

What was measured:
[1] = target: JNK1 (Homo sapiens, UniProt P45983); experiment: Human kinase selectivity screening: JNK1; type: biochemical; settings: read-out: JNK1 pIC50 values (converted)
Excerpt: (§1) These kinases were chosen for general selectivity screening owing to their broad representation of the human kinome.

[2] = target: AURB (Homo sapiens, UniProt Q96GD4); experiment: Human kinase selectivity screening: AURB; type: biochemical; settings: read-out: AURB pIC50 values (converted)
Excerpt: as §1

JNK1, sequence (P45983 whole entry): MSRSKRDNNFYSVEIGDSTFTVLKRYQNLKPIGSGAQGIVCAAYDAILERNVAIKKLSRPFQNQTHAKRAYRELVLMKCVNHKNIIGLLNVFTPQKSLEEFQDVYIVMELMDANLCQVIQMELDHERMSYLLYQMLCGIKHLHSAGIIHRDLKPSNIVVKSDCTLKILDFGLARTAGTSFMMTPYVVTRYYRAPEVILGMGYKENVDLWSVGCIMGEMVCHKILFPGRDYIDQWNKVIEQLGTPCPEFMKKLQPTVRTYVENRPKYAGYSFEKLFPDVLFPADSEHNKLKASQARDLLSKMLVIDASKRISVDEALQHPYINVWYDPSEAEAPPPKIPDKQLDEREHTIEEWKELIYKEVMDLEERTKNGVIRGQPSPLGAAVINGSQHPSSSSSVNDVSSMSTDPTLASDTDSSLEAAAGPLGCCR
AURB, sequence (Q96GD4 whole entry): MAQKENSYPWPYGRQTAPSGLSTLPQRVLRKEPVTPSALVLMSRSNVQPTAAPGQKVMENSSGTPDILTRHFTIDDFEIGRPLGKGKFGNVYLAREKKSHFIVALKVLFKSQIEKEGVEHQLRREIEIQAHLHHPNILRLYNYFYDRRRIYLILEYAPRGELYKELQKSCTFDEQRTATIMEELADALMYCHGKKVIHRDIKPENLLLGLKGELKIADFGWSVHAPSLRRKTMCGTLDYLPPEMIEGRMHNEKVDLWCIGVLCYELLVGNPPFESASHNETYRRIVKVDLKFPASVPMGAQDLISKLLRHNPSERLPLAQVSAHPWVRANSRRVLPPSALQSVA

**Q.** For Cc1cc(Nc2cc(C3CC3)[nH]n2)nc(N2CCCCC2)n1 [NEU-0001127], which IC50 [1] is on record?
**A.** 1000 nM

**Q.** What about the IC50 [2] of the same compound?
**A.** 158 nM

**Q.** O=S1(=O)Cc2ccc(Nc3nccc(-c4ccc(F)cc4)n3)cc2C1 [NEU-0001142] was tested. Which IC50 [1] did it give?
**A.** 200 nM

**Q.** What about the IC50 [2] of the same compound?
**A.** 63.1 nM

**Q.** Which results are given for CCCNc1nc(Nc2cnn(C)c2)c2c(=O)[nH]ccc2n1 [NEU-0001187]?
**A.** IC50 [1]: 501 nM; IC50 [2]: 7.94 nM

**Q.** How did the IC50 [1] turn out when CCCCc1nc(Nc2cccc(C)c2)c2c(=O)[nH]ccc2n1 [NEU-0001191] was run?
**A.** 2000 nM

**Q.** What about the IC50 [2] of the same compound?
**A.** 158 nM

**Q.** Which results are given for CN(C)Cc1ccc(-c2[nH]c3ncc(C#N)cc3c2-c2ccccc2)cc1 [NEU-0001206]?
**A.** IC50 [1]: > 25100 nM; IC50 [2]: 39.8 nM

**Q.** Which IC50 [1] does the source give for Cn1cc(-c2cnc3[nH]cc(-c4cccc(C#N)c4)c3c2)cn1 [NEU-0001207] here?
**A.** 501 nM

**Q.** And the IC50 [2]?
**A.** 1260 nM

**Q.** O=C(Nc1ccc(-c2ccnc3[nH]ccc23)s1)C1(Cc2ccccc2)CCCNC1 (centres unmarked) [NEU-0001240] was tested. Which IC50 [1] did it give?
**A.** > 25100 nM

**Q.** What about the IC50 [2] of the same compound?
**A.** 0.501 nM
